Literature values in PubChem BioAssay AID1259409 (Chemical Carcinogenesis Research Information System (CCRIS), 2018).

Tested on: rodent chemically induced tumor inhibition, incidence and multiplicity
Assay: CCRIS tumor inhibitor studies
Conditions: Route [Inhibitor]: ORAL

## O=C1O[C@H]([C@@H](O)CO)C(O)=C1O
Carcinogen: 1,2-DIMETHYLHYDRAZINE, 540-73-8, Dose [Inhibitor]: 0.3% IN DRINKING WATER BEGINNING POST LAST CARCINOGEN DOSE AND CONTINUING FOR DURATION OF STUDY (STUDY DURATION: 55 WK), Species: MOUSE, Strain/Sex: CBA/FEMALE, Target Tissue: Type of Lesion: UTERUS (ENDOMETRIUM): STROMAL SARCOMA, Dose [Carcinogen]: 8 MG/KG BW IN WATER 1/WK FOR 8 WK, Promoter: ESTRADIOL PROPIONATE, 113-38-2
  tumour outcome (control, treated, inhibition, significance): 13/40 (33%), 3/40 (8%), 77%, not calculated
Carcinogen: 1,2-DIMETHYLHYDRAZINE, 540-73-8, Dose [Inhibitor]: 1% IN 20% FAT DIET DAILY STARTING 2 WK BEFORE CARCINOGEN TREATMENT AND CONTINUING FOR DURATION OF STUDY (STUDY DURATION:, Species: RAT, Strain/Sex: F344/FEMALE, Target Tissue: Type of Lesion: COLON: ADENOMA, ADENOCARCINOMA, Dose [Carcinogen]: 150 MG/KG BW IN 0.9% SALINE ADJUSTED TO PH 6.8 ONCE, Promoter: NONE USED
  tumour outcome (control, treated, inhibition, significance): 26%, 0%, 100%, p<0.05
Carcinogen: 1,2-DIMETHYLHYDRAZINE, 540-73-8, Dose [Inhibitor]: 1% IN 20% FAT DIET DAILY STARTING 2 WK BEFORE CARCINOGEN TREATMENT AND CONTINUING FOR DURATION OF STUDY (STUDY DURATION:, Species: RAT, Strain/Sex: F344/FEMALE, Target Tissue: Type of Lesion: KIDNEY: NEPHROBLASTOMA, ADENOCARCINOMA, Dose [Carcinogen]: 150 MG/KG BW IN 0.9% SALINE ADJUSTED TO PH 6.8 ONCE, Promoter: NONE USED
  tumour outcome (control, treated, inhibition, significance): 22%, 0%, 100%, p<0.05
Carcinogen: 1,2-DIMETHYLHYDRAZINE, 540-73-8, Dose [Inhibitor]: 1% IN 20% FAT DIET DAILY STARTING 2 WK BEFORE START OF CARCINOGEN TREATMENT AND CONTINUING FOR DURATION OF STUDY (STUDY, Species: RAT, Strain/Sex: F344/FEMALE, Target Tissue: Type of Lesion: COLON: ADENOCARCINOMA, Dose [Carcinogen]: 20 MG/KG BW IN 0.9% SALINE 1/WK FOR 10 WK, Promoter: NONE USED
  tumour outcome (control, treated, inhibition, significance): 33%, 39%, -18%, not significant
Carcinogen: 1,2-DIMETHYLHYDRAZINE, 540-73-8, Dose [Inhibitor]: 1% IN 20% FAT DIET DAILY STARTING 2 WK BEFORE START OF CARCINOGEN TREATMENT AND CONTINUING FOR DURATION OF STUDY (STUDY, Species: RAT, Strain/Sex: F344/FEMALE, Target Tissue: Type of Lesion: COLON: ADENOMA, Dose [Carcinogen]: 20 MG/KG BW IN 0.9% SALINE 1/WK FOR 10 WK, Promoter: NONE USED
  tumour outcome (control, treated, inhibition, significance): 42%, 39%, 7%, not significant
Carcinogen: 1,2-DIMETHYLHYDRAZINE, 540-73-8, Dose [Inhibitor]: 1% IN 20% FAT DIET DAILY STARTING 2 WK BEFORE START OF CARCINOGEN TREATMENT AND CONTINUING FOR DURATION OF STUDY (STUDY, Species: RAT, Strain/Sex: F344/FEMALE, Target Tissue: Type of Lesion: DUODENUM: ADENOCARCINOMA, ADENOMA, Dose [Carcinogen]: 20 MG/KG BW IN 0.9% SALINE 1/WK FOR 10 WK, Promoter: NONE USED
  tumour outcome (control, treated, inhibition, significance): 25%, 26%, -4%, not significant
Carcinogen: 1,2-DIMETHYLHYDRAZINE, 540-73-8, Dose [Inhibitor]: 1% IN 20% FAT DIET DAILY STARTING 2 WK BEFORE START OF CARCINOGEN TREATMENT AND CONTINUING FOR DURATION OF STUDY (STUDY, Species: RAT, Strain/Sex: F344/FEMALE, Target Tissue: Type of Lesion: EAR DUCT: SQUAMOUS CELL CARCINOMA, Dose [Carcinogen]: 20 MG/KG BW IN 0.9% SALINE 1/WK FOR 10 WK, Promoter: NONE USED
  tumour outcome (control, treated, inhibition, significance): 13%, 13%, 0%, not significant
Carcinogen: 1,2-DIMETHYLHYDRAZINE, 540-73-8, Dose [Inhibitor]: 1% IN 20% FAT DIET DAILY STARTING 2 WK BEFORE START OF CARCINOGEN TREATMENT AND CONTINUING FOR DURATION OF STUDY (STUDY, Species: RAT, Strain/Sex: F344/FEMALE, Target Tissue: Type of Lesion: KIDNEY: NEPHROBLASTOMA, ADENOCARCINOMA, Dose [Carcinogen]: 20 MG/KG BW IN 0.9% SALINE 1/WK FOR 10 WK, Promoter: NONE USED
  tumour outcome (control, treated, inhibition, significance): 13%, 18%, -38%, not significant
Carcinogen: 1,2-DIMETHYLHYDRAZINE, 540-73-8, Dose [Inhibitor]: 1.2% IN DIET DAILY STARTING 2 WK PRIOR TO CARCINOGEN TREATMENT AND CONTINUING FOR DURATION OF STUDY (STUDY DURATION: 28, Species: RAT, Strain/Sex: SPRAGUE-DAWLEY/MALE, Target Tissue: Type of Lesion: COLON: ADENOCARCINOMA, Dose [Carcinogen]: 20 MG/KG BW IN BACTERIOSTATIC SALINE 1/WK FOR 20 WK, Promoter: NONE USED
  tumour outcome (control, treated, inhibition, significance): 64%, 38%, 41%, not calculated
Carcinogen: 3-METHYLCHOLANTHRENE, 56-49-5, Dose [Inhibitor]: 0, 1.25% IN DRINKING WATER FOR DURATION OF STUDY BEGINNING 15 D PRIOR TO CARCINOGEN TREATMENT (STUDY DURATION: 150 D), Species: MOUSE, Strain/Sex: LACA/MALE, Target Tissue: Type of Lesion: GLANDULAR STOMACH: TUMOR, Dose [Carcinogen]: 2.2 MG (AVERAGE DOSE) ON COTTON THREADS IMPLANTED IN GLANDULAR STOMACH, Promoter: NONE USED
  tumour outcome (control, treated, inhibition, significance): 66%, 28%, 58%, p<0.02
Carcinogen: 3-METHYLCHOLANTHRENE, 56-49-5, Dose [Inhibitor]: 0, 2 MG/ML IN DRINKING WATER FOR 6 WK BEGINNING ON FIRST DAY OF CARCINOGEN TREATMENT (STUDY DURATION: 16 WK), Species: MOUSE, Strain/Sex: SWISS/FEMALE, Target Tissue: Type of Lesion: CERVIX: SQUAMOUS CELL CARCINOMA, Dose [Carcinogen]: 600 UG IN BEESWAX IMPREGNATED COTTON THREAD FOR DURATION OF STUDY, Promoter: NONE USED
  tumour outcome (control, treated, inhibition, significance): 16/21 (76%), 5/15 (33%), 57%, p<0.02
Carcinogen: 3-METHYLCHOLANTHRENE, 56-49-5, Dose [Inhibitor]: 0, 2 MG/ML IN DRINKING WATER FOR 10 WK BEGINNING 6 WK AFTER FIRST DAY OF CARCINOGEN TREATMENT (STUDY DURATION: 16 WK), Species: MOUSE, Strain/Sex: SWISS/FEMALE, Target Tissue: Type of Lesion: CERVIX: SQUAMOUS CELL CARCINOMA, Dose [Carcinogen]: 600 UG IN BEESWAX IMPREGNATED COTTON THREAD FOR DURATION OF STUDY, Promoter: NONE USED
  tumour outcome (control, treated, inhibition, significance): 16/21 (76%), 8/12 (67%), 12%, not significant
Carcinogen: 3-METHYLCHOLANTHRENE, 56-49-5, Dose [Inhibitor]: 0, 2 MG/ML IN DRINKING WATER FOR 16 WK (STUDY DURATION: 16 WK), Species: MOUSE, Strain/Sex: SWISS/FEMALE, Target Tissue: Type of Lesion: CERVIX: SQUAMOUS CELL CARCINOMA, Dose [Carcinogen]: 600 UG IN BEESWAX IMPREGNATED COTTON THREAD FOR DURATION OF STUDY, Promoter: NONE USED
  tumour outcome (control, treated, inhibition, significance): 16/21 (76%), 5/15 (33%), 57%, p<0.02
Carcinogen: 7,12-DIMETHYLBENZ[A]ANTHRACENE, 57-97-6, Dose [Inhibitor]: 0, 30 MG/ML IN DRINKING WATER FROM 40-90 D OF AGE THEN 0, 20 MG/ML FROM 90-180 D OF AGE AND 0, 10 MG/ML FROM 180-240 D O, Dose [Inhibitor]: 0, 30 MG/ML IN DRINKING WATER FROM 40-90 D OF AGE THEN 0, 20 MG/ML FROM 90-180 D OF AGE AND 0, 10 MG/ML FROM 180-240 D O, Species: RAT, Strain/Sex: SPRAGUE-DAWLEY/FEMALE, Target Tissue: Type of Lesion: MAMMARY GLAND: ADENOCARCINOMA, FIBROADENOMA, Dose [Carcinogen]: 5 MG IN 0.2 ML SESAME OIL 1/2 D FOR 12 D BEGINNING AT 50 D OF AGE, Promoter: NONE USED
  tumour outcome (control, treated, inhibition, significance): 100%, 57%, 43%, p<0.001
